Test results taken from publication PMC10793102 (Acta Pharmaceutica Sinica. B, 2023).
pEC50, pIC50: −log10 of the molar value. Read-outs that look alike come from different tables or passages of the source.

Key:
FADD−/− Jurkat = test: Cell viability assay, protection from necroptosis in FADD−/− Jurkat cells; assay type: cell-based; details: Homo sapiens, 16 h
L929 = test: Cell viability assay, protection from necroptosis in L929 cells; assay type: cell-based, mouse; details: for pEC50: Mus musculus, L929, 16 h; for protective effects against cell death of L929 cells induced by TNFα: TNFα 40 ng/mL, 15 h, Fig. 2A
[1] = Cytotoxicity at high concentrations in cell viability assays; assay type: cell-based
PK study in mice = assay type: in vivo; details: male, ICR, mouse, plasma
[2] = system: phosphorylation of RIPK1, RIPK3 and MLKL; test: Western blotting of necroptosis pathway in stimulated HT-29 cells; assay type: cell-based, human; details: compounds at 5 μmol/L, 4 h
hRIPK1 = molecular target: T1, hRIPK1 (Homo sapiens, UniProt Q13546); test: In vitro RIPK1 kinase activity assay; assay type: biochemical; details: Enzymatic IC50s RIPK1, hRIPK1 enzymatic assay
T1 sequence (Q13546 1-671): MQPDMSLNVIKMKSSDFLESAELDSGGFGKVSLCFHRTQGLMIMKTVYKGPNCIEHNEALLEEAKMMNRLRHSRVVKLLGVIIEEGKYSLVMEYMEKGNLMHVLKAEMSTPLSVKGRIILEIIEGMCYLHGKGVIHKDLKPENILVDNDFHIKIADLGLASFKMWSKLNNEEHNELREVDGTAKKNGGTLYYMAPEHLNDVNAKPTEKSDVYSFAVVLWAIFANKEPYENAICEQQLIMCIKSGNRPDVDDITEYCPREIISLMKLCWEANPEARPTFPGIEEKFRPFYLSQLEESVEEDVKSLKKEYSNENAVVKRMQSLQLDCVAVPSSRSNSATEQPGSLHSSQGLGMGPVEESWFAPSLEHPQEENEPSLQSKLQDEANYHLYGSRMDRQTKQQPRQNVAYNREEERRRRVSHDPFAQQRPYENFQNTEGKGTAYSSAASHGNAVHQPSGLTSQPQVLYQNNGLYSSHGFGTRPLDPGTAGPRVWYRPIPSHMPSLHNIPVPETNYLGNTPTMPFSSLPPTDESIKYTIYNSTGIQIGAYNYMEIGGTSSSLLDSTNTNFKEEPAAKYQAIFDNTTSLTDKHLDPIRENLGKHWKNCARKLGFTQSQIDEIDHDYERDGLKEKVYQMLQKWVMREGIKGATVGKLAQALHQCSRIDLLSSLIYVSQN

hRIPK3 = hRIPK3 (Homo sapiens, UniProt Q9Y572); test: In vitro RIPK3 kinase activity assay; assay type: biochemical
[3] = read-out: EC50 FADD−/− Jurkat T + S
[4] = read-out: EC50 FADD−/− Jurkat TNFα

Sequence of hRIPK3 (Q9Y572 whole entry): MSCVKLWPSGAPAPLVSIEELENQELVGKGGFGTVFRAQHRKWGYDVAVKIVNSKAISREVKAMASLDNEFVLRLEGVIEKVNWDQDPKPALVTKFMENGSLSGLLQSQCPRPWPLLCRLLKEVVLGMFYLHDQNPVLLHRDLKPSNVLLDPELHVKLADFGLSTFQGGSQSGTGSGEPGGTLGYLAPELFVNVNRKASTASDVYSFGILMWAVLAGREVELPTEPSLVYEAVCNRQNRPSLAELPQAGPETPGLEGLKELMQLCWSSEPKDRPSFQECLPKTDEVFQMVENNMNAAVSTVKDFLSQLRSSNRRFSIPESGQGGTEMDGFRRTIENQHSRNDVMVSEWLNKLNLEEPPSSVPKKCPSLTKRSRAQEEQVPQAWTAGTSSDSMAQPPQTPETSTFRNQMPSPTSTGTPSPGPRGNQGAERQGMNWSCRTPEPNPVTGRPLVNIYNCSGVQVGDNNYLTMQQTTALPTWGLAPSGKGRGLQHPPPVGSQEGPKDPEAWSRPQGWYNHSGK

| SMILES | pEC50 (FADD−/− Jurkat; [3]) | pEC50 (FADD−/− Jurkat; [4]) | pEC50 (L929; read-out: EC50 L929 T + S) | pEC50 (L929; read-out: EC50 L929 TNFα) | other results |
| --- | --- | --- | --- | --- | --- |
| C[C@H](NC(=O)c1c(Cl)nn(C)c1Cc1ccccc1)c1ccc(-n2cnc3c(N)ncnc32)cc1 [compound 57] | 9.52 | 10.05 | 9.40 | 9.52 | cytotoxicity at high concentrations [1]: increased cytotoxicity at higher concentrations |
| CNC(=O)c1ccc2c(c1)ncn2-c1ccc(CC(=O)N(O)Cc2ccccc2)cc1 [compound 14] | < 5.00 | 5.42 | 7.01 | 7.30 | – |
| CNC(=O)c1ccc2ncn(-c3ccc(CNC(=O)c4cc(Cc5ccccc5)nn4C)cc3)c2c1 [compound 21] | < 5.00 | < 5.00 | < 5.00 | < 5.00 | – |
| CNC(=O)c1ccc2c(c1)ncn2-c1ccc(CNC(=O)c2nocc2Cc2ccccc2)cc1 [compound 19] | 6.95 | 8.09 | 5.48 | 5.67 | – |
| CNC(=O)c1ccc2c(cnn2-c2ccc(CNC(=O)c3cc(Cc4ccccc4)n(C)n3)cc2)c1 [compound 29] | < 5.00 | < 5.00 | < 5.00 | < 5.00 | – |
| Cn1ncc(C(=O)NC(C)(C)c2ccc(-n3cnc4c(N)ncnc43)cc2)c1Cc1ccccc1 [compound 56] | 7.55 | 8.12 | – | 6.26 | – |
| C[C@@H](NC(=O)c1cnn(C)c1Cc1ccccc1)c1ccc(-n2cnc3c(N)ncnc32)cc1 [compound 55] | 6.88 | 7.44 | 6.66 | 7.28 | – |
| COc1cc2ncn(-c3ccc(CNC(=O)c4cnn(C)c4Cc4ccccc4)cc3)c2cc1OC [compound 33] | 10.00 | 10.70 | 9.40 | 10.22 | – |
| Cn1ncc(C(=O)NCc2ccc(-n3cnc4c(N)nccc43)cc2)c1Cc1ccccc1 [compound 40] | 8.64 | 9.52 | 8.20 | 8.92 | – |
| Cn1nc(Cl)c(C(=O)NCc2ccc(-n3cnc4c(N)ncnc43)cc2)c1Cc1ccccc1 [compound 48, N-(4-(6-Amino-9H-purin-9-yl)benzyl)-5-benzyl-3-chloro-1-methyl-1H-pyrazole-4-carboxamide] | 9.15 | 9.70 | 8.34 | 9.30 | AUC(0-inf) (PK study in mice; iv, 1 mg/kg): 1310 ng·h/mL; AUC(0-t) (PK study in mice; iv, 1 mg/kg): 1300 ng·h/mL; MRT inf (PK study in mice; iv, 1 mg/kg): 1.97 h; Vd (PK study in mice; iv, 1 mg/kg): 1.55 L/kg; clearance (PK study in mice; iv, 1 mg/kg): 13.3 mL/min/kg; half-life (PK study in mice; iv, 1 mg/kg): 0.81 h; AUC(0-inf) (PK study in mice; po, 10 mg/kg): 8400 ng·h/mL; AUC(0-t) (PK study in mice; po, 10 mg/kg): 8280 ng·h/mL; Cmax (PK study in mice; po, 10 mg/kg): 3050 ng/mL; MRT inf (PK study in mice; po, 10 mg/kg): 4.05 h; Tmax (PK study in mice; po, 10 mg/kg): 0.42 h; bioavailability (PK study in mice; po, 10 mg/kg): 63.9%; half-life (PK study in mice; po, 10 mg/kg): 1.39 h |
| Nc1ncnc2c1ncn2-c1ccc(CNC(=O)c2ccc(F)n2Cc2ccccc2)cc1 [compound 51] | 8.80 | 10.00 | 7.13 | 9.05 | – |
| CCN1CCN(Cc2ccc(NC(=O)Cc3ccc(-n4cnc5cc(C(=O)NC)ccc54)cc3)cc2C(F)(F)F)CC1 [compound 11] | < 5.00 | < 5.00 | 6.15 | 6.72 | protective effects against cell death of L929 cells induced by TNFα (L929): protective effects similar to 10; phosphorylation of RIPK1 (Western blot) [2]: diminished the phosphorylation of the upstream effector RIPK1; phosphorylation of RIPK3 and MLKL (Western blot) [2]: comparably diminished the phosphorylation of RIPK3 and the downstream MLKL |
| Cn1nc(C(=O)NCc2ccc(-n3ccc4c(N)ncnc43)cc2)cc1Cc1ccccc1 [compound 45] | 6.01 | 6.86 | – | 5.54 | – |
| CCN1CCN(Cc2ccc(NC(=O)Nc3ccc(-n4cnc5cc(C(=O)NC)ccc54)cc3)cc2C(F)(F)F)CC1 [compound 12] | – | – | – | – | protective effects against cell death of L929 cells induced by TNFα (L929): protective effects similar to 10; phosphorylation of RIPK1 (Western blot) [2]: diminished the phosphorylation of the upstream effector RIPK1; phosphorylation of RIPK3 and MLKL (Western blot) [2]: comparably diminished the phosphorylation of RIPK3 and the downstream MLKL |
| Cn1ncc(C(=O)NCc2ccc(-n3cnc4cc(C(=O)NCCN5CCOCC5)ccc43)cc2)c1Cc1ccccc1 [compound 32] | 8.52 | 9.30 | 6.72 | 7.49 | – |
| Cn1ncc(C(=O)NCc2ccc(-n3ccc4c(N)ncnc43)cc2)c1Cc1ccccc1 [compound 42] | 8.10 | 8.38 | 9.05 | 10.00 | – |
| CNC(=O)c1ccc2c(c1)ncn2-c1ccc(CNC(=O)c2ccc(F)n2Cc2ccccc2)cc1 [compound 26] | 7.77 | 8.77 | 7.47 | 8.22 | – |
| CN1CCN(CCNC(=O)c2ccc3c(c2)ncn3-c2ccc(CNC(=O)c3cnn(C)c3Cc3ccccc3)cc2)CC1 [compound 31] | 9.22 | 11.00 | < 5.00 | 5.25 | – |
| C[C@H](NC(=O)c1cnn(C)c1Cc1ccccc1)c1ccc(-n2cnc3c(N)ncnc32)cc1 [compound 54, (S)-N-(1-(4-(6-Amino-9H-purin-9-yl)phenyl)ethyl)-5-benzyl-1-methyl-1H-pyrazole-4-carboxamide] | 9.52 | 10.10 | 9.22 | 9.40 | pIC50 (hRIPK1): ~8.22; pIC50 (hRIPK3): < 6.00; AUC(0-inf) (PK study in mice; iv, 1 mg/kg): 672 ng·h/mL; AUC(0-t) (PK study in mice; iv, 1 mg/kg): 659 ng·h/mL; MRT inf (PK study in mice; iv, 1 mg/kg): 1.98 h; Vd (PK study in mice; iv, 1 mg/kg): 2.98 L/kg; clearance (PK study in mice; iv, 1 mg/kg): 25 mL/min/kg; half-life (PK study in mice; iv, 1 mg/kg): 0.44 h; AUC(0-inf) (PK study in mice; po, 10 mg/kg): 2480 ng·h/mL; AUC(0-t) (PK study in mice; po, 10 mg/kg): 2440 ng·h/mL; Cmax (PK study in mice; po, 10 mg/kg): 1200 ng/mL; MRT inf (PK study in mice; po, 10 mg/kg): 3.05 h; Tmax (PK study in mice; po, 10 mg/kg): 0.5 h; bioavailability (PK study in mice; po, 10 mg/kg): 37%; half-life (PK study in mice; po, 10 mg/kg): 0.9 h |
| CNC(=O)c1ccc2c(c1)ncn2-c1ccc(CNC(=O)c2noc(Cc3ccccc3)n2)cc1 [compound 16] | 6.75 | 7.62 | – | 6.02 | – |
| CCn1ncc(C(=O)NCc2ccc(-n3cnc4c(N)ncnc43)cc2)c1Cc1ccccc1 [compound 47] | 7.46 | 8.92 | 7.13 | 7.66 | – |
| COc1ccc2c(c1)ncn2-c1ccc(CNC(=O)c2cnn(C)c2Cc2ccccc2)cc1 [compound 34] | 10.00 | 11.70 | 10.10 | 11.30 | – |
| Cn1nc2c(c1Cc1ccccc1)C(=O)N(Cc1ccc(-n3cnc4c(N)ncnc43)cc1)CC2 [compound 59] | 8.64 | 9.70 | 7.41 | 8.08 | – |
| CNC(=O)c1ccc2c(c1)ncn2-c1ccc(CNC(=O)c2ncc(Cc3ccccc3)o2)cc1 [compound 18] | 6.42 | 7.15 | 5.40 | 6.08 | – |
| Cn1ncc(C(=O)NCc2ccc(-n3ncc4c(N)ncnc43)cc2)c1Cc1ccccc1 [compound 41] | 8.16 | 9.40 | 7.64 | 8.00 | – |
